Assay results reported in patent US20230250070A1, “DIHYDROOXAZOLE AND THIOUREA DERIVATIVES MODULATING THE NLRP3 INFLAMMASOME PATHWAY” (AC IMMUNE SA, priority 2020, published 2023).

What was measured:
[1] = system: NLRP3 inflammasome pathway; assay: Human whole blood assay (LPS-ATP), IL-1β levels by AlphaLISA; type: cell-based; details: LPS priming, ATP activation 1 h, IL-1β in plasma
Experimental: • Preliminary blood hemolysis assessment was performed before running the assay. Blood samples were centrifuged at 1000 g for 10 min. Then, 50 to 100 µL of blood were transferred into Corning™96-Well Clear flat bottom plate. Hemolysis was assessed via Tecan at 414 nm wavelength. Hemolysis O.D. values should be lower than 1. • Add 10 µL LPS 9× or CTRL following plate layout. • Add 80 µL of each whole blood/well in PP low-bind 96-well plate. • Incubate for 2h30 to 3 h at 37° C. and 5% CO2. • Add 10 µL of compounds 10× or control in wells following plate layout. • Incubate for 30 min at 37° C. and 5% CO2. • Add 11 µL ATP 10× or control in all wells following plate layout. • Incubate for 1 h at 37° C. and 5% CO2. • Collect 1 h timepoint → Centrifuge the plate 1000 g 10 min, collect the plasma (40 to 50 µL) and store at -20° C. • Measure IL-1β levels by AlphaLISA
(§1) For IL-1β quantification, supernatants were analyzed using AlphaLISA kits according to the manufacturer’s instructions (Perkin Elmer AlphaLISA AL220F). Briefly, in a 384-well OptiPlate™ microplate, 5 µl of sample was mixed, with 20 µl of AlphaLISA Anti-Analyte Acceptor beads (10 µg/mL final) and Biotinylated Antibody Anti-Analyte (1 nM final). Then, incubated 60 minutes at RT, then 25 µL of 2X SA-Donor beads (40 µg/mL final) were added and incubated 30 minutes at RT in the dark. Reading was done using an EnVision-Alpha Reader (PerkinElmer).
(§2) IC50(concentration corresponding to 50% inhibition) were determined using GraphPad Prism 8.

[2] = system: NLRP3 inflammasome pathway; assay: NLRP3 inflammasome pathway activation assay, MSU stimulation, IL-1β release (AlphaLISA); type: cell-based; details: PMA-differentiated, LPS-primed human monocyte-like cells, MSU 150 µg/ml for 3 h
Experimental: (§3) The following assays were used to determine the inhibitory activity of test compounds on the NLRP3 inflammasome pathway using common stimuli Nigericin (Invivogen) or monosodium urate crystals (MSU) (Invivogen).
(§4) Human monocyte-like cells were cultured in RPMI-1640 Glutamax medium supplemented with 10% heat inactivated FCS and 50 U/ml penicillin-streptomycin (Life Technologies).
(§5) Human monocyte-like cells were seeded at 75000 per well in a 96-well plate and were differentiated overnight into macrophages with 10 ng/ml PMA (Phorbol Myristate Acetate). The following day, medium containing 10 ng/ml LPS (Lipopolysaccharide) were added. After 3 hours of LPS priming, concentrations of test compound in the range from 100 µM to 6 nM were added 30 min prior to NLRP3 inflammasome pathway stimulation with Nigericin 3.75 µM or MSU 150 µg/ml for 3 h.
as §1, §2

[3] = system: NLRP3 inflammasome pathway; assay: NLRP3 inflammasome pathway activation assay, Nigericin stimulation, IL-1β release (AlphaLISA); type: cell-based; details: PMA-differentiated, LPS-primed human monocyte-like cells, Nigericin 3.75 µM for 3 h
Experimental: as §3, §4, §5, §1, §2

[4] = system: NLRP3 inflammasome pathway; assay: LPS-ATP induced peritonitis mouse model, IL-1β in peritoneal lavage; type: in vivo, C57BL/6 female mice; details: for inhibition of IL-1β release in peritoneal lavage samples (FIG. 1): mice dosed 1 mg/kg or 3 mg/kg by intraperitoneal injection, n=6, p<0.0001 vs vehicle-treated group; for % IL-1 beta inhibition vs vehicle (peritoneal lavage samples): mice, intraperitoneal 1 mg/kg or 3 mg/kg (dose not given), 15 min before ATP
Experimental: C57BL/6 female mice aged 6 to 8 weeks were randomized into experimental groups. Mice were challenged intraperitoneally with 50 µg/kg LPS. Two hours later, mice received i.p. 200 µL of ATP (Adenosine TriPhosphate) 50 mM, pH 7.2. Compounds were administered intraperitoneally at 1 mg/kg or 3 mg/kg, 15 minutes before ATP injection. Thirty minutes after ATP injection, animals were sacrificed by CO2. Cardiac blood was collected through heart puncture. Peritoneal lavage was performed with a total volume of 4 mL of sterile saline solution with intact peritoneum. IL-1b levels were assessed in peritoneal lavage samples via AlphaLisa. Results were expressed as % reduction compared to vehicle-treated group.
as §1

Molecule	IC50 [1] [nM]	IC50 [2] [nM]	IC50 [3] [nM]	inhibition of IL-1β release in peritoneal lavage samples (FIG. 1) [4]	% IL-1 beta inhibition vs vehicle (peritoneal lavage samples) [4] [%]	IC50 ([3]; Homo sapiens, 3 h) [nM]
CC(C)OC(=O)C1(c2ccon2)CN=C(Nc2c3c(cc4c2CCC4)CCC3)O1 (single isomer, unassigned) [Example 59, isopropyl 2-((1,2,3,5,6,7-hexahydro-s-indacen-4-yl)amino)-5-(isoxazol-3-yl)-4,5-dihydrooxazole-5-carboxylate]	1000 to 10000	< 1000	–	–	–	–
O=C(O)C1(c2ccon2)CN=C(Nc2c3c(cc4c2CCC4)CCC3)O1 (stereo not shown) [Example 29, 2-((1,2,3,5,6,7-hexahydro-s-indacen-4-yl)amino)-5-(isoxazol-3-yl)-4,5-dihydrooxazole-5-carboxylate]	1000 to 10000	< 1000	–	–	–	–
CCOC(=O)C1(c2cc(C(C)(C)O)on2)CN=C(Nc2c3c(cc4c2CCC4)CCC3)O1 (single isomer, unassigned) [Example 16, Ethyl 2-((1,2,3,5,6,7-hexahydro-s-indacen-4-yl)amino)-5-(5-(2-hydroxypropan-2-yl)isoxazol-3-yl)-4,5-dihydrooxazole-5-carboxylate]	< 1000	< 1000	< 1000	significant inhibition	99	–
O=C(OC1CCCC1)C1(c2ccon2)CN=C(Nc2c3c(cc4c2CCC4)CCC3)O1 (stereo not shown) [Example 58, Cyclopentyl 2-((1,2,3,5,6,7-hexahvdro-s-indacen-4-vl)amino)-5-(isoxazol-3-yl)-4,5-dihydrooxazole-5-carboxylate]	1000 to 10000	< 1000	–	–	–	–
O=C(O)C1(c2nccs2)CN=C(Nc2c3c(cc4c2CCC4)CCC3)O1 (stereo not shown) [Example 24, 2-((1,2,3,5,6,7-hexahydro-s-indacen-4-yl)amino)-5-(thiazol-2-yl)-4,5-dihydrooxazole-5-carboxylic acid]	1000 to 10000	1000 to 10000	–	–	–	–
CCOC(=O)C1(c2ccon2)CN=C(Nc2c3c(cc4c2CCC4)CCC3)O1 (single isomer, unassigned) [Example 21Bb]	< 1000	< 1000	–	–	73	–
CCOC(=O)C1(c2cc(C(C)(C)O)on2)OC(Nc2c3c(cc4c2CCC4)CCC3)=NC1C (racemic) [Example 52, ethyl 2-((1,2,3,5,6,7-hexahydro-s-indacen-4-yl)amino)-5-(5-(2-hydroxypropan-2-yl)isoxazol-3-yl)-4-methyl-4,5-dihydrooxazole-5-carboxylate]	–	1000 to 10000	–	–	–	< 1000
Ethyl 2-((1,2,3,5,6,7-hexahydro-s-indacen-4-yl)amino)-5-(tetrahvdro-2H-pyran-4-yl)-4,5-dihydrooxazole-5-carboxylate [Example 12]	–	1000 to 10000	1000 to 10000	–	–	–
CC(C)(O)c1cc(C2(C(=O)O)CN=C(Nc3c4c(cc5c3CCC5)CCC4)O2)no1 (stereo not shown) [Example 23, 2-((1,2,3,5,6,7-hexahydro-s-indacen-4-yl)amino)-5-(5-(2-hydroxypropan-2-yl)isoxazol-3-yl)-4,5-dihydrooxazole-5-carboxylic acid]	1000 to 10000	–	< 1000	significant inhibition	>99	–
CCOC(=O)C1(c2ccc(OC)nc2)CN=C(Nc2c3c(cc4c2CCC4)CCC3)O1 (stereo not shown) [Example 6, Ethyl 2-((1,2,3,5,6,7-hexahydro-s-indacen-4-yl)amino)-5-(6-methoxypyridin-3-yl)-4,5-dihydrooxazole-5-carboxylate]	–	< 1000	–	–	–	< 1000
CCOC(=O)C1(c2nccn2C)CN=C(Nc2c3c(cc4c2CCC4)CCC3)O1 (stereo not shown) [Example 3, Ethyl 2-((1,2,3,5,6,7-hexahvdro-s-indacen-4-vl)amino)-5-(1-methyl-1H-imidazol-2-yl)-4,5-dihydrooxazole-5-carboxylate]	–	< 1000	–	–	–	< 1000
